We go through three molecules from US8334107B2, “Detection systems utilizing supported lipid bilayers” (priority 2005, dated 2012).

One assay has as its system lipid bilayer. The experiment in a line: Superquenching of fluorescent polymer coated lipid bilayer beads (general statement). The format is biochemical. Particulars: streptolysin O with cholesterol-containing lipids, mellitin with anionic lipids. The source says:
On the other hand, some test agents may only lead to gaps or smaller interruptions of the lipid bilayer, for example, as a result of insertion of a channel- or pore-forming proteins such as gramicidin and hemolysin. In either case, the result is either complete or partial superquenching of the fluorescent polymer. In general, non-porous beads are used for such quenching assays because the quenchable polymer is preferably coated onto the beads and is not impregnated into the beads.

Assay [1] relates to cholesterol (10%, molar ratio) containing lipid membrane. Briefly: Release of dye from porous particles coated with cholesterol containing lipid membrane by streptolysin-O. It counts as biochemical. Conditions: low concentrations of streptolysin-O versus control without. Here is the method:
FIGS. 22A-B illustrate one aspect of the invention—drug and/or dye release from the present lipid-coated particles. FIG. 22A is a graph showing release of dye from porous particles (containing dye inside) where the particles are coated with a cholesterol (10%, molar ratio) containing lipid membrane. As increasing amounts of streptolysin-O are added (solid square symbols represent lower concentration than solid ovals), more dye is released. […] FIG. 22B illustrates how streptolysin-O can disrupt cholesterol-containing lipid bilayer membranes, leading to release of materials (e.g., drugs or antibiotics) enclosed within the membrane. Streptolysin-O is an anti-microbial protein that preferably binds to cholesterol and can disrupt cholesterol-containing membranes.

Assay [2] relates to anionic phospholipids. Particulars: cited from earlier work.
The subject of assay [3] is anionic phospholipids. Briefly: Affinity of PLA2 for anionic phospholipids (Kim et al.). It counts as binding. The source says:
From FIG. 18, the association constant (corresponding to the reciprocal of the point of half saturation) for nMLT and sMLT with DMPG were 5×10^6 M^−1 and 1.7×10^6 M^−1, respectively. […] Lower concentrations of nMLT, in comparison to sMLT, were required to disrupt the DMPG lipid bilayer. This might be attributed to the fact that nMLT contains some phospholipase A2 (PLA2) as a contaminant. PLA2 has a high affinity for anionic phospholipids, with an association constant of 0.5×10^10 M^−1 (Kim et al., Anal. Chem. 250, 109-116 (1997)), which is about 3000 fold higher than that of MLT. Although PLA2 activity requires calcium, which is not present in the experimental system, it has been reported that even upon addition of EDTA to natural MLT, PLA2 maintains its activity, probably due to formation of a tight complex with calcium with PLA2 (Dempsey, C. E. Biochim. Biophys. Acta 1990, 1031, 143-161).

Another assay deals with monomeric IgG. Conditions: cited from earlier work.

Regarding “streptolysin-O: anti-microbial protein that preferably binds to cholesterol and can disrupt cholesterol-containing membranes”, the “effect on the lipid bilayer” value in the assay with lipid bilayer is given as “total disruption of the bilayer”. In addition, the release of dye result in assay [1] is “greater than observed for control”.

Turning to “PLA2: lipolytic enzyme, contaminant of natural melittin”, the “effect on the lipid bilayer” value in the assay with lipid bilayer is “total disruption of the bilayer”. The association constant in the assay with anionic phospholipids [2] was 5e+09 M⁻¹. The “association constant relative to that of MLT” value in the assay on anionic phospholipids [3] is listed as “about 3000 fold”.

B1: FcγRIIb: low affinity IgG receptor, single polypeptide chain of 310 amino acids (protein, UniProt P31994 43-310, looked up)
Low affinity immunoglobulin …: TPAAPPKAVLKLEPQWINVLQEDSVTLTCRGTHSPESDSIQWFHNGNLIPTHTQPSYRFKANNNDSGEYTCQTGQTSLSDPVHLTVLSEWLVLQTPHLEFQEGETIVLRCHSWKDKPLVKVTFFQNGKSKKFSRSDPNFSIPQANHSHSGDYHCTGNIGYTLYSSKPVTITVQAPSSSPMGIIVAVVTGIAVAAIVAAVVALIYCRKKRISALPGYPECREMGETLPEKPANPTNPDEADKVGAENTITYSLLMHPDALEEPDDQNRI
As for B1, on monomeric IgG, the dissociation constant Kd was around 1000 nM.

By Kd is commonly meant the concentration at which binding is half-saturated.
